How the values were obtained:
Assay in all cases: Kinase panel activity
Type in all cases: biochemical
Settings in all cases: 0.1 μM, ATP Km
GRK7(h) = GRK7(h) (Homo sapiens, UniProt Q8WTQ7)
Procedure: (§1) The effect of NTW-3475 on kinase activity was tested for a wide range of kinases and is shown in Table 2: Summary Sheet, Activity % ATP Concentration: Km

MST3(h) = MST3(h) (Homo sapiens, UniProt Q9Y6E0)
Procedure: as §1

Snk(h) = molecular target: T1, Snk(h) (Homo sapiens, UniProt Q9NYY3)
T1 construct: purchased Millipore (KinaseProfiler service)
Procedure: as §1

P1k3(h) = P1k3(h) (Homo sapiens, UniProt Q9H4B4)
Procedure: as §1

FGFR2(N549H)(h) = FGFR2(N549H)(h) (Homo sapiens, UniProt P21802, N549H)
Procedure: as §1

PKCμ(h) = PKCμ(h) (Homo sapiens, UniProt Q15139)
Procedure: as §1

ZIPK(h) = ZIPK(h) (Homo sapiens, UniProt O43293)
Procedure: as §1

NEK11(h) = NEK11(h) (Homo sapiens, UniProt Q8NG66)
Procedure: as §1

Ab1(Q252H)(h) = Ab1(Q252H)(h) (Homo sapiens, UniProt P00519, Q252H)
Procedure: as §1

SAPK2a(h) = molecular target: T2, SAPK2a(h) (Homo sapiens, UniProt Q16539)
T2 construct: purchased Millipore (KinaseProfiler service)
Procedure: as §1

ALK4(h) = ALK4(h) (Homo sapiens, UniProt P36896)
Procedure: as §1

MuSK(h) = MuSK(h) (Homo sapiens, UniProt O15146)
Procedure: as §1

CDK6/cyclinD3(h) = CDK6/cyclinD3(h) (Homo sapiens, UniProt Q00534)
Procedure: as §1

PAK2(h) = PAK2(h) (Homo sapiens, UniProt Q13177)
Procedure: as §1

IGF-1R(h), activated = IGF-1R(h), activated (Homo sapiens, UniProt P08069)
Procedure: as §1

PhKγ2(h) = PhKγ2(h) (Homo sapiens, UniProt P15735)
Procedure: as §1

MST1(h) = MST1(h) (Homo sapiens, UniProt Q13043)
Procedure: as §1

PAK6(h) = PAK6(h) (Homo sapiens, UniProt Q9NQU5)
Procedure: as §1

KDR(h) = KDR(h) (Homo sapiens, UniProt P35968)
Procedure: as §1

CaMKIIδ(h) = CaMKIIδ(h) (Homo sapiens, UniProt Q13557)
Procedure: as §1

GRK6(h) = GRK6(h) (Homo sapiens, UniProt P43250)
Procedure: as §1

SAPK2b(h) = molecular target: T3, SAPK2b(h) (Homo sapiens, UniProt Q15759)
T3 construct: purchased Millipore (KinaseProfiler service)
Procedure: as §1

PKBβ(h) = PKBβ(h) (Homo sapiens, UniProt P31751)
Procedure: as §1

PDGFRα(h) = PDGFRα(h) (Homo sapiens, UniProt P16234)
Procedure: as §1

PKGIβ(h) = PKGIβ(h) (Homo sapiens, UniProt Q13976)
Procedure: as §1

EphA4(h) = molecular target: T4, EphA4(h) (Homo sapiens, UniProt P54764)
T4 construct: purchased Millipore (KinaseProfiler service)
Procedure: as §1

MAPKAP-K3(h) = molecular target: T5, MAPKAP-K3(h) (Homo sapiens, UniProt Q16644)
T5 construct: purchased Millipore (KinaseProfiler service)
Procedure: as §1

Tec(h) activated = molecular target: T6, Tec(h) activated (Homo sapiens, UniProt P42680)
T6 construct: purchased Millipore (KinaseProfiler service)
Procedure: as §1

SGK2(h) = molecular target: T7, SGK2(h) (Homo sapiens, UniProt Q9HBY8)
T7 construct: purchased Millipore (KinaseProfiler service)
Procedure: as §1

FGFR3(h) = FGFR3(h) (Homo sapiens, UniProt P22607)
Procedure: as §1

CaMKIIγ(h) = CaMKIIγ(h) (Homo sapiens, UniProt Q13555)
Procedure: as §1

CK2α2(h) = CK2α2(h) (Homo sapiens, UniProt P19784)
Procedure: as §1

TBK1(h) = molecular target: T8, TBK1(h) (Homo sapiens, UniProt Q9UHD2)
T8 construct: purchased Millipore (KinaseProfiler service)
Procedure: as §1

FGFR2(h) = FGFR2(h) (Homo sapiens, UniProt P21802)
Procedure: as §1

PKCθ(h) = PKCθ(h) (Homo sapiens, UniProt Q04759)
Procedure: as §1

CaMKIV(h) = CaMKIV(h) (Homo sapiens, UniProt Q16566)
Procedure: as §1

PKA(h) = PKA(h) (Homo sapiens, UniProt P17612)
Procedure: as §1

PAK5(h) = PAK5(h) (Homo sapiens, UniProt Q9P286)
Procedure: as §1

MKK4(m) = molecular target: T9, MKK4(m) (Mus musculus, UniProt P47809)
T9 construct: purchased Millipore (KinaseProfiler service)
Procedure: as §1

LKB1(h) = LKB1(h) (Homo sapiens, UniProt Q15831)
Procedure: as §1

Chain of PKGIβ(h) (Q13976 1-686 isoform Q13976-2): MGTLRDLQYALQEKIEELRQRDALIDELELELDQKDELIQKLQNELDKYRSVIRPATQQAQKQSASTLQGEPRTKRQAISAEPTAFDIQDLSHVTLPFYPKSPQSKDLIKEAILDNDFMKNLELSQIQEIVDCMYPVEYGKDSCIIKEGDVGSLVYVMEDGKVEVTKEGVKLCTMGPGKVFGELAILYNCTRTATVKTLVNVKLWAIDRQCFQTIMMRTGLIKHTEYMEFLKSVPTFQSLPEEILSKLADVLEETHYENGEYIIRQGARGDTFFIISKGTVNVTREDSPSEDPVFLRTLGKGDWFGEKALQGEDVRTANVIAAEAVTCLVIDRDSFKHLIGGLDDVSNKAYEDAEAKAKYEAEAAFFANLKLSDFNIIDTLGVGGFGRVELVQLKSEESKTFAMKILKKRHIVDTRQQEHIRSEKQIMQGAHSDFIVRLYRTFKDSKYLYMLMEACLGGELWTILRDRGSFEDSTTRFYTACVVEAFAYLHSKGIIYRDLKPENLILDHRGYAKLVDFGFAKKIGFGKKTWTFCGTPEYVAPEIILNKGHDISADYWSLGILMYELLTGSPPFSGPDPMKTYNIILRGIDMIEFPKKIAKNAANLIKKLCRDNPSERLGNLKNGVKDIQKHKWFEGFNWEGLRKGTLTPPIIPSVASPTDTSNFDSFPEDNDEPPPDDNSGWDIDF
Chain of GRK6(h) (P43250 whole entry): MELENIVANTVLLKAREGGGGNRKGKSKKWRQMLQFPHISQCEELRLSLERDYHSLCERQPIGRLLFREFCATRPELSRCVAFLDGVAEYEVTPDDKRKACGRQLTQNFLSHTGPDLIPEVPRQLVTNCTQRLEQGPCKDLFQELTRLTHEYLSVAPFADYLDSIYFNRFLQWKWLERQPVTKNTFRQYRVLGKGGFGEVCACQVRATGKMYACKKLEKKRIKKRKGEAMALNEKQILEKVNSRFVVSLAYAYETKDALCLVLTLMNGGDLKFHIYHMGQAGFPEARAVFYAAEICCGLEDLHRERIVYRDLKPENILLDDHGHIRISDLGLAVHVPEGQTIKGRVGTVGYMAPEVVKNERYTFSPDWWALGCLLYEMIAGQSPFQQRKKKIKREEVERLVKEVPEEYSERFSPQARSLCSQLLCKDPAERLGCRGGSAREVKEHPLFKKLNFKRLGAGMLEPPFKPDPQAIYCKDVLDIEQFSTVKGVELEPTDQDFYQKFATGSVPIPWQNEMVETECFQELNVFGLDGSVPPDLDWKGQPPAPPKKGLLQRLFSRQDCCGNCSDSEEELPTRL
T5 sequence (Q16644 whole entry): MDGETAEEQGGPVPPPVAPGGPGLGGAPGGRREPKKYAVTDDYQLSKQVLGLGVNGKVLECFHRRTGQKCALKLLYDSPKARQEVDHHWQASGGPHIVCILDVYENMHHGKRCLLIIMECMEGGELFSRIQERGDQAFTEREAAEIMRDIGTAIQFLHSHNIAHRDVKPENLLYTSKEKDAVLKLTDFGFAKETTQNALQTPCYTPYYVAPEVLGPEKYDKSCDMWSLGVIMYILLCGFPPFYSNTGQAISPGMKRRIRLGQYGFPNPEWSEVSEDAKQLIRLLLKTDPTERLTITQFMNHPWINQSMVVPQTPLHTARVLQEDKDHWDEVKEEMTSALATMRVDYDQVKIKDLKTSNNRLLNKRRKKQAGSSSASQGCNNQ
T7 sequence (Q9HBY8 whole entry): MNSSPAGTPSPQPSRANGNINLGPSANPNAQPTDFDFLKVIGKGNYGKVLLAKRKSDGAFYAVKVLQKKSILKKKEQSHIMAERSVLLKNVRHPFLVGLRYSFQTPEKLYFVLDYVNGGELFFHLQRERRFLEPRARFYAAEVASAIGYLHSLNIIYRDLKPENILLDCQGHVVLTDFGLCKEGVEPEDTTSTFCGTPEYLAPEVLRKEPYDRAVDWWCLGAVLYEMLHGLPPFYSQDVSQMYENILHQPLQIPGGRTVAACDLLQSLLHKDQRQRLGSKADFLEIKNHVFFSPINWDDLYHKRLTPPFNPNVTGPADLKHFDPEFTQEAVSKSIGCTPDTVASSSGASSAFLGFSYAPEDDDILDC
T9 sequence (P47809 whole entry): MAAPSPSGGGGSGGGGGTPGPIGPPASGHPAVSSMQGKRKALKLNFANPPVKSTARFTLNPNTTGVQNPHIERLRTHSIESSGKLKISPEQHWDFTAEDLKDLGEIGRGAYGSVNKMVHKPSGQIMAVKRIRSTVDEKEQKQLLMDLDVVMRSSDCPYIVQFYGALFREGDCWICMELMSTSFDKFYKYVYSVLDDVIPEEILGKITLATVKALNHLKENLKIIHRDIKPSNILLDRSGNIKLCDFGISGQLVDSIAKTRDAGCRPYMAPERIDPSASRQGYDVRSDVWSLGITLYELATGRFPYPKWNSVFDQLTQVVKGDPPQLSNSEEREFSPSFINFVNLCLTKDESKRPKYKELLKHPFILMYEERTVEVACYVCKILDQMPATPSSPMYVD
Chain of ZIPK(h) (O43293 whole entry): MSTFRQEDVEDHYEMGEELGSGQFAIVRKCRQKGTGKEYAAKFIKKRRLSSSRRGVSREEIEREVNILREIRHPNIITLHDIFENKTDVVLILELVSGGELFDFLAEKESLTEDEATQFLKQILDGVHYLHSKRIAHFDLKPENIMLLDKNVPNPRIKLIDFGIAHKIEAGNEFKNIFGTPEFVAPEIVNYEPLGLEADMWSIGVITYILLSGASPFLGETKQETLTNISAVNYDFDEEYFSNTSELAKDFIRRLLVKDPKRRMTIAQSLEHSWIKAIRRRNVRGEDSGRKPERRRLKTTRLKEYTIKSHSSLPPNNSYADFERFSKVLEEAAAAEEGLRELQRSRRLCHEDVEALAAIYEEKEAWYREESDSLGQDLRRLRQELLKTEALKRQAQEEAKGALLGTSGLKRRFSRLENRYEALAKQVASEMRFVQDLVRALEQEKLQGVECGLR
Chain of PAK2(h) (Q13177 whole entry): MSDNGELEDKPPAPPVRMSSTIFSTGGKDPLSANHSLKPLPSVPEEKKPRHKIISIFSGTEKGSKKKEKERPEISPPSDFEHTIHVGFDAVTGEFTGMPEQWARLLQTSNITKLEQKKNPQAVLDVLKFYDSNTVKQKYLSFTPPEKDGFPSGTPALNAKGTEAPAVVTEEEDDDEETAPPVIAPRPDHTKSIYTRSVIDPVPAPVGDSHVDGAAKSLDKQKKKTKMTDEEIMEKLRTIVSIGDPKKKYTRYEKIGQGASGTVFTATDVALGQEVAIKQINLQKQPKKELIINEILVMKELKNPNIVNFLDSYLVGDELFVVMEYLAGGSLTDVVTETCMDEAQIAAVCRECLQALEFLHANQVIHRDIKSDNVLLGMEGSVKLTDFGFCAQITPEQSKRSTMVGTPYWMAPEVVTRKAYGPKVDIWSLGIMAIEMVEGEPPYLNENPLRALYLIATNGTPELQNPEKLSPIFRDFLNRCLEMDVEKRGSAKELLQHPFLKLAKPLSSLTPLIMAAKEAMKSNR
Chain of NEK11(h) (Q8NG66 whole entry): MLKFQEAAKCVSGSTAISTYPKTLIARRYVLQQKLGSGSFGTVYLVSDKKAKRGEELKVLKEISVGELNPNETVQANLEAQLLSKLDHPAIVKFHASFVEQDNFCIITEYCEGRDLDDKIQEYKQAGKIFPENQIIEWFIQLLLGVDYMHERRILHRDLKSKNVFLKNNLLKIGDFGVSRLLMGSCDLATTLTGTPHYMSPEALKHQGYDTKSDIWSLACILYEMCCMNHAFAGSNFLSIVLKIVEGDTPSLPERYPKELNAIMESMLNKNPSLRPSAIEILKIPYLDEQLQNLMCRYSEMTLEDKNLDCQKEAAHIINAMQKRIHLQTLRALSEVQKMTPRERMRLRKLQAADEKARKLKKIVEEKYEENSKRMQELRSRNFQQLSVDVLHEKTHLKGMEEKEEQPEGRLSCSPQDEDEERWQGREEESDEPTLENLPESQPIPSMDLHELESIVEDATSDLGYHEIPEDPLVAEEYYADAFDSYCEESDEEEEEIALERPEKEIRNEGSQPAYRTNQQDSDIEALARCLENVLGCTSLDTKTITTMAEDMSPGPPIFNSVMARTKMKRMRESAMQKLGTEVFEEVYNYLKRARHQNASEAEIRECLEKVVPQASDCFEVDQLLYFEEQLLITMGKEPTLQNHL
Chain of MST1(h) (Q13043 whole entry): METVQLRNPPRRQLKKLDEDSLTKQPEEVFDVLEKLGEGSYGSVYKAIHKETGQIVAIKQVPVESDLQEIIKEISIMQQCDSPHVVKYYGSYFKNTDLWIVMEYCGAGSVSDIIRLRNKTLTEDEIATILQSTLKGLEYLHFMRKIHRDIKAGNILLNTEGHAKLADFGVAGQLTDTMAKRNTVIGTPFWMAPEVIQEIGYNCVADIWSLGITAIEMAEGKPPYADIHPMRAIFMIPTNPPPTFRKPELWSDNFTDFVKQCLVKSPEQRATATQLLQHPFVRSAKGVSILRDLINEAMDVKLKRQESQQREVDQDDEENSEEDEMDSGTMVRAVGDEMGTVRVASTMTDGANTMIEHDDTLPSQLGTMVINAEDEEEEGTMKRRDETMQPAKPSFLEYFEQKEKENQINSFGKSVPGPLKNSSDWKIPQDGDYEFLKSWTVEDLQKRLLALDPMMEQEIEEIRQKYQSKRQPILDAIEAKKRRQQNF
Chain of MST3(h) (Q9Y6E0 whole entry): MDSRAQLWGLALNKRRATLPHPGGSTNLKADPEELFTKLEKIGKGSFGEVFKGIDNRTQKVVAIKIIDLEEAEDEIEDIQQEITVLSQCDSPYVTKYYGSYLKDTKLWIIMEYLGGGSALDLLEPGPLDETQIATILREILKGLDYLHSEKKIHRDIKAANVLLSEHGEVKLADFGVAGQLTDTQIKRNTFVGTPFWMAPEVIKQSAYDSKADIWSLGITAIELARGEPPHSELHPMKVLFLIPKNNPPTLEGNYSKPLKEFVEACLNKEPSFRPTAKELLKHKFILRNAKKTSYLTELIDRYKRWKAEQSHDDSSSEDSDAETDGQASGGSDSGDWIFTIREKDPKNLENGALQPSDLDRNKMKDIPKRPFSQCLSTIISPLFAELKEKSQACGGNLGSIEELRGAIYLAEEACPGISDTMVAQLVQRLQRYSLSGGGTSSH

## Cc1cc2c(F)c(Oc3nc(Nc4cc(C5CC5)[nH]n4)cc(N4CCN(C)CC4)n3)cc(F)c2[nH]1 [NTW-3475]
GRK7(h)
  Activity %: 97%
MST3(h)
  Activity %: 9%
Snk(h)
  Activity %: 97%
P1k3(h)
  Activity %: 95%
FGFR2(N549H)(h)
  Activity %: −1%
PKCμ(h)
  Activity %: 95%
ZIPK(h)
  Activity %: 104%
NEK11(h)
  Activity %: 102%
Ab1(Q252H)(h)
  Activity %: −2%
SAPK2a(h)
  Activity %: 79%
ALK4(h)
  Activity %: 28%
MuSK(h)
  Activity %: 48%
CDK6/cyclinD3(h)
  Activity %: 65%
PAK2(h)
  Activity %: 65%
IGF-1R(h), activated
  Activity %: 18%
PhKγ2(h)
  Activity %: 77%
MST1(h)
  Activity %: 24%
PAK6(h)
  Activity %: 85%
KDR(h)
  Activity %: 14%
CaMKIIδ(h)
  Activity %: 98%
GRK6(h)
  Activity %: 69%
SAPK2b(h)
  Activity %: 103%
PKBβ(h)
  Activity %: 97%
PDGFRα(h)
  Activity %: 67%
PKGIβ(h)
  Activity %: 111%
EphA4(h)
  Activity %: 23%
MAPKAP-K3(h)
  Activity %: 103%
Tec(h) activated
  Activity %: 52%
SGK2(h)
  Activity %: 107%
FGFR3(h)
  Activity %: 0%
CaMKIIγ(h)
  Activity %: 87%
CK2α2(h)
  Activity %: 115%
TBK1(h)
  Activity %: 28%
FGFR2(h)
  Activity %: 0%
PKCθ(h)
  Activity %: 109%
CaMKIV(h)
  Activity %: 106%
PKA(h)
  Activity %: 111%
PAK5(h)
  Activity %: 29%
MKK4(m)
  Activity %: 100%
LKB1(h)
  Activity %: 98%

From patent US9458137B2, “Substituted indol-5-ol derivatives and their therapeutical applications” (NantBioScience, Inc., priority 2012, dated 2016)
